Measurements published in US8092800B2 (priority 2005, dated 2012).
Marks after values point to notes of the source that are not given here. Square brackets hold non-standard residues; d marks the D form. Peptide text beside a SMILES is read from it. * marks the point of attachment. Sta = CC(C)C[C@H](N)[C@@H](O)CC(=O)O; Isovaleryl = CC(C)CC(=O)*

Assays:
SAP2 = SAP2 (Candida albicans, UniProt P0DJ06)
Method: This was based on bovine serum albumin degradation by a native, highly purified SAP2 preparation, essentially as described by Ross et al. Briefly, each assay contained 0.6 ml of 1% (w/v) BSA (Sigma Chem. Co., Detroit, Mich.) in 50 mM sodium citrate pH 3.2 and 0.15 enzyme solution (100 μg/ml). After 30 min at 37° C. 0.4 ml 10% (w/v) trichloroacetic acid was added. The tubes were stored in ice for 30 min and then centrifuged (1600×g) for 10 min. The absorbance of supernatant was read at 280 nm. The control was 1% BSA in enzyme-free citrate buffer. One unit of enzyme catalysed a delta OD of 1 per minute.

C. albicans = assay: Systemic C. albicans infection in Balb/c mice, PEGylated dAbs; type: in vivo, Candida albicans; settings: 1 mg/kg at 2 h, 6 h and 24 h post infection
Method: Briefly, mice were chronically infected with C. albicans by injecting 1×10^6 cells per mouse via the lateral tail vein (in 0.2 ml saline). Anti-SAP2 or anti-MP65 dAbs were administered as previously indicated. Survival rates compared with control animals were measured.
PEGylated versions of both monomer and dimer constructs were assayed for efficacy in controlling a systemic C. albicans infection in Balb/c mice, using a protocol similar to the murine systemic model described above. One mg/kg of PEGylated dAb protein or fluconazole was administered at 2 h, 6 h and 24 h post infection to groups of 8 mice.

[1] = system: Candida albicans strain SA40; settings: cited from earlier work
[2] = system: Candida albicans strain SA40; assay: Rat vaginal candidiasis model, strain SA40; type: in vivo; settings: rats, pre-treated 30 min before intravaginal challenge with SA40
Method: The selected dAbs as described above were assayed for their capacity to accelerate fungus clearance from the rat vaginal cavity challenged by a virulent vaginopathic Candida strain. The controls were the use of an irrelevant dAb, and an anti-enolase antibody as negative ones and the antimycotic fluconazole and pepstatin A (the prototypal Sap inhibitor) as positive ones.

Candida albicans = assay: Adherence of Candida to plastic; type: cell-based; settings: anti-MP65 dAbs
Method: The fungal cells were grown at 28° C. on YPD agar slants (2.0% wt/vol glucose, 1.0% wt/vol yeast extract, 2.0 wt/vol Bacto peptone, (Difco, Detroit, Mich.). Single suspensions of each organism were prepared by a modification of the procedure of Rotronsen (Rotronsen, D., et al. 1986. Rev Infect Dis.; 8:73-85). Briefly, cells were grown 24 h at 28° C. on a rotating drum in YBD broth pH5.0 (0.2% wt/vol yeast extract, 2.0% wt/vol […] and 2.0% wt/vol dextrose, (Difco, Detroit, Mich.). After harvesting by centrifugation, the C. albicans cells were washed three times in physiological solution (0.85% NaCl). Blastospores were counted with Thoma camera and adjusted to desired concentration (10^8 cells/ml) in Hank's Balanced Salt Solution with calcium and magnesium (Hyclone, Logan, Utah).
For adherence to the plastic, the fungal cells, grown as above, were washed twice with water and suspended at 1.5×10^3 cells/ml in modified Lee's or M199 liquid media. 1.5×10^3 cells were incubated for 3 hrs at 37° C. in 6-well polystyrene plates (Corning Incorporated, Corning, N.Y.,). After extensive washing, 1 ml of Sabouraud dextrose agar was poured in each well and allowed to solidify. After incubation at 37° C. for 24 hrs, colonies were counted and the results expressed as percentage of the inoculum. […]

SAP2, sequence (P0DJ06 57-398): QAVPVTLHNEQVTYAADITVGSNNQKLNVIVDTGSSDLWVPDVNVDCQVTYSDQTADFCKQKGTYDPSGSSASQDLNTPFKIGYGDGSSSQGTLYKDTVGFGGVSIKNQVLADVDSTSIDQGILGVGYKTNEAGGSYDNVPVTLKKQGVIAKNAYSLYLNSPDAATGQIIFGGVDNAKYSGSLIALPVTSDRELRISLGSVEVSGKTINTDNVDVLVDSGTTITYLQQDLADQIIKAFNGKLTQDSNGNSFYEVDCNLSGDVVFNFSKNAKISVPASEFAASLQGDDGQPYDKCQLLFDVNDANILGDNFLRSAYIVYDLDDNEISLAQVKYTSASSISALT

Question: Which results are given for CC(C)CC(=O)N[C@H](C(=O)N[C@H](C(=O)N[C@@H](CC(C)C)[C@@H](O)CC(=O)N[C@@H](C)C(=O)N[C@@H](CC(C)C)[C@@H](O)CC(=O)O)C(C)C)C(C)C [pepstatin, pepstatin A] (Isovaleryl-VV[Sta]A[Sta]-OH)?
Answer: ΔOD/ml/min (BSA degradation by SAP) (SAP2; citrate buffer + 1% BSA + SAP, acidic conditions, no-inhibitor control 1.0): 0.36 ΔOD/ml/min; % Inhibition (SAP2; inhibition of BSA degradation by SAP2, compared with pepstatin (100*)): 100* %

Question: Which results are given for OC(Cn1cncn1)(Cn1cncn1)c1ccc(F)cc1F [Fluconazole, fluconazole]?
Answer: Mean Survival Time (C. albicans): >30 days; Survival (C. albicans): 88%; susceptibility of strain [1]: fully susceptible

B1: ADR4-6: Sap2 binding dAb, SEQ ID No 18 (protein, listed as Homo sapiens)
VHH: EVQLLESGGGLVQPGGSLRLSCAASGFRVSNYDLTWVRQAPGKGLEWVSTISATNGSTYYADSVKGRFTISRDNSKNTLYLQMNSLRAEDTAVYYCAAVTWWLLRHNDNLGFWGQGTLVTVSS
modifications: Sap2-binding dAb
Question: With B1 as the molecule, how does the “day of healing/resolution of infection (<1 CFU/μl of vaginal fluid), preventative” value [2] read?
Answer: 21 days

B2: ADR4-13: Sap2 binding dAb, SEQ ID No 25 (protein, listed as Homo sapiens)
VHH: EVQLLESGGGLVQPGGSLRLSCAASGFSISYKNMAWVRQAPGKGLEWVSAIKAANGSTYYADSVKGRFTISRDNSKNTLYLQMNSLRAEDTAVYYCATGSQKKRTYTFDFWGQGTLVTVSS
modifications: Sap2-binding dAb
Question: For B2, which “day of healing/resolution of infection (<1 CFU/μl of vaginal fluid), preventative” value [2] is on record?
Answer: 21 days

B3: ADR3-1: MP65 binding dAb, SEQ ID No 5 (antibody, listed as Homo sapiens, V domains shown)
VH: EVQLLESGGGLVQPGGSLRLSCAASGFTFPDYSMTWVRQAPGKGLEWVSLISNSGKTTMYADSVKGRFTISRDNSKNTLYLQMNSLRAEDTAVYYCAKWVNRILQEFDYWGQGTLVTVSS
modifications: MP65-binding dAb
Question: For B3, which “capacity to inhibit adherence to plastic” value (Candida albicans) is on record?
Answer: capacity to inhibit adherence to plastic
